Our source for the Dmax values is patent publication US20250205344A1, “2,4-DIOXOTETRAHYDROPYRIMIDINYL DERATIVES AS DEGRONS IN PROTACS” (GLAXOSMITHKLINE INTELLECTUAL PROPERTY DEVELOPMENT LIMITED, priority 2022, published 2025).

SMILES strings stand for the structures. Structures can show the parent of a compound that is named as a salt.

The target of this test is T1, Androgen Receptor (Homo sapiens, UniProt P10275, T878A).
T1 construct: the AR gene was modified, using CRISPR/Cas9 editing, so the expressed AR protein included an 11 amino acid HiBiT tag; endogenous in cells; host or cells: clonal LnCaP-derived line, AR gene edited by CRISPR/Cas9
T1 sequence (P10275 whole entry T878A): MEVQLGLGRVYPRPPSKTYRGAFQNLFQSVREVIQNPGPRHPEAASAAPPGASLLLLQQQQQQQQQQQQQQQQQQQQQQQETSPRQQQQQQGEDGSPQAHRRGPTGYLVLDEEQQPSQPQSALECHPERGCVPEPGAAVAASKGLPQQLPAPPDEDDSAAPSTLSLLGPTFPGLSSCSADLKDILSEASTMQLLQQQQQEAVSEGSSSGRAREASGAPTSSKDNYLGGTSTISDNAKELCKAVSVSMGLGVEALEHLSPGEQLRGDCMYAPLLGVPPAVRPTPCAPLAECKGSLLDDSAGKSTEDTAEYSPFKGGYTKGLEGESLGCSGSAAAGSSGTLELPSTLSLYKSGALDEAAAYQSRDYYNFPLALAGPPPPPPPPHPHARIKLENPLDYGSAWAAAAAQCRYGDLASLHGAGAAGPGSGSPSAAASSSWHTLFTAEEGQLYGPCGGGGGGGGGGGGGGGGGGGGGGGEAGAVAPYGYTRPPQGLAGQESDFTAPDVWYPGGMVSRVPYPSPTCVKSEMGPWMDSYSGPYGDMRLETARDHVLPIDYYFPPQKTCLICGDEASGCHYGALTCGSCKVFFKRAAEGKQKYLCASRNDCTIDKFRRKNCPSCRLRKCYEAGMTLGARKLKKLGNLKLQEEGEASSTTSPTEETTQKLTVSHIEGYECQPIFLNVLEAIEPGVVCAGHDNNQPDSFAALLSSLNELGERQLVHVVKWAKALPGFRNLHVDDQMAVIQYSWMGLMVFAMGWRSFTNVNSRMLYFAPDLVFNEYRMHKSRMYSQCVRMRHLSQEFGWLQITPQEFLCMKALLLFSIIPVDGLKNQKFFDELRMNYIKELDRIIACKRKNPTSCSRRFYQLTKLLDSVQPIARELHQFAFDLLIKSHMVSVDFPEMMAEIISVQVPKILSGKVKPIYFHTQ
T1 sequence (Q96SW2 whole entry partner): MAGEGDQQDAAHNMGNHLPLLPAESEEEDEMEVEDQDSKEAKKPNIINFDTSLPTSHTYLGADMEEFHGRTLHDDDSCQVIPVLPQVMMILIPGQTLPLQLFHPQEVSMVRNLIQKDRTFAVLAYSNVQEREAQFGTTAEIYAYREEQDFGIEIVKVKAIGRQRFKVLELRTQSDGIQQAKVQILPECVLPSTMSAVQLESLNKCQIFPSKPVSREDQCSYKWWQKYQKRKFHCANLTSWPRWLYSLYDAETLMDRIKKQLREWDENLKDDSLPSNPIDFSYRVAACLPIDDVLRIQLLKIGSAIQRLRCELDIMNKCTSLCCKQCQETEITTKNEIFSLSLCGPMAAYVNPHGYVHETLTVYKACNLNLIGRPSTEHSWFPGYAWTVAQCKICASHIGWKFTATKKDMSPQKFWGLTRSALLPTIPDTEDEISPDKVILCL
T1 sequence (Q16531 whole entry partner): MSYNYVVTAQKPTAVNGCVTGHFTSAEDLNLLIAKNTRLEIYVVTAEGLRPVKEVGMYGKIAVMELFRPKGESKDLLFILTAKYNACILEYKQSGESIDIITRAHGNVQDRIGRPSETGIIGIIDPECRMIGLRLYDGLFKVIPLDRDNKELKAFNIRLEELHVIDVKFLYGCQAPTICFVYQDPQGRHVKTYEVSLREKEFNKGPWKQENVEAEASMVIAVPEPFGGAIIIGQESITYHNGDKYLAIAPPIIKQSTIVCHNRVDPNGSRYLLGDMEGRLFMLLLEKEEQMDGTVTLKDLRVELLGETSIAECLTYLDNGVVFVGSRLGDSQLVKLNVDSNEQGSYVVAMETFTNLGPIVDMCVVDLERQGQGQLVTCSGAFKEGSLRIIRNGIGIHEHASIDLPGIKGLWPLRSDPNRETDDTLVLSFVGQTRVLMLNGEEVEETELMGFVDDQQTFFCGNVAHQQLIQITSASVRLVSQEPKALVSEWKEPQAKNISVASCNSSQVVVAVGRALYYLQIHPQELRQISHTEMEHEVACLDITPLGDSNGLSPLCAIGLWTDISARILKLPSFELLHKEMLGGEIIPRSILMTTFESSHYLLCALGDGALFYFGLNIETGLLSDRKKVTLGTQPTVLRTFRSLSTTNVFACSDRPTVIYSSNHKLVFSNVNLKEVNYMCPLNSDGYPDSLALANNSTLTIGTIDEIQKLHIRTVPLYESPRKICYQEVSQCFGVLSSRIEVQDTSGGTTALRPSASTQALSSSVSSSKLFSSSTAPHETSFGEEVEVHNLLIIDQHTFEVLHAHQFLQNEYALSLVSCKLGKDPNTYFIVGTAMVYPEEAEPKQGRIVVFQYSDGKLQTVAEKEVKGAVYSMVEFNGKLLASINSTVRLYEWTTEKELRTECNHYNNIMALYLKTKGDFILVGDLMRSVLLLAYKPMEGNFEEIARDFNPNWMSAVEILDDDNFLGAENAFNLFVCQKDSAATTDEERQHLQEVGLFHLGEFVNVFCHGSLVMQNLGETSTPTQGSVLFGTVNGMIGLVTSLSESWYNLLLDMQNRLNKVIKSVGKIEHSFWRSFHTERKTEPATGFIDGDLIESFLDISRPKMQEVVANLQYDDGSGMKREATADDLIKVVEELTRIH
Put plainly: Androgen Receptor Degradation Assay (Nano-Glo HiBiT). Type of test: cell-based. The conditions noted are these: LNCaP, 18 h, HiBiT-tagged AR in human LnCaP cells, read-out: mean asymptote max. The method, boiled down: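 LnCaP cells with CRISPR-knocked-in N-terminal HiBiT-tagged AR (10,000/well) treated 18 h at 37 °C with PROTACs over 11 threefold concentrations; lytic HiBiT luminescence normalised to DMSO (0%) and cell-free (100%) controls. Relative DC50 = 4-parameter fit inflection; absolute DC50 = 50% degradation interpolation; Dmax = maximum observed degradation.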
Background: With HiBiT, luminescence reflects the tagged protein that the partner subunit can reach.
With `N#Cc1ccc(O[C@H]2CC[C@H](NC(=O)c3ccc(N4CCC[C@H](CN5CCC(n6ccc7c(N8CCC(=O)NC8=O)cccc76)CC5)C4)nn3)CC2)cc1Cl` [EAR142, N-((1r,4R)-4-(3-chloro-4-cyanophenoxy)cyclohexyl)-6-((R)-3-((4-(4-(2,4-dioxotetrahydropyrimidin-1(2H)-yl)-1H-indol-1-yl)piperidin-1-yl)methyl)piperidin-1-yl)pyridazine-3-carboxamide], the Dmax is not below 50%. Take `CC(C)n1ccc2c(N3CCC(=O)NC3=O)cc(C(=O)N(C)CC3CCN(CCC4CCN(c5ccc(N6C(=S)N(c7ccc(C#N)c(C(F)(F)F)c7)C(=O)C6(C)C)cc5)CC4)CC3)cc21` [EAR91, N-((1-(2-(1-(4-(3-(4-Cyano-3-(trifluoromethyl)phenyl)-5,5-dimethyl-4-oxo-2-thioxoimidazolidin-1-yl)phenyl)piperidin-4-yl)ethyl)piperidin-4-yl)methyl)-4-(2,4-dioxotetrahydropyrimidin-1(2H)-yl)-1-isopropyl-N-methyl-1H-indole-6-carboxamide]: the Dmax was not below 50%. Regarding `CC1(C)C(=O)N(c2ccc(C#N)c(C(F)(F)F)c2)C(=S)N1c1ccc(N2CCC(CCN3CCC(n4ncc5c(N6CCC(=O)NC6=O)cncc54)CC3)CC2)cc1` [EAR97, 4-(3-(4-(4-(2-(4-(4-(2,4-Dioxotetrahydropyrimidin-1(2H)-yl)-1H-pyrazolo[3,4-c]pyridin-1-yl)piperidin-1-yl)ethyl)piperidin-1-yl)phenyl)-4,4-dimethyl-5-oxo-2-thioxoimidazolidin-1-yl)-2-(trifluoromethyl)benzonitrile formate], the Dmax was not below 50%. In the case of `N#Cc1ccc(O[C@H]2CC[C@H](NC(=O)c3cnc(N4CCC(CN5CCC(n6ncc7c(N8CCC(=O)NC8=O)cccc76)CC5)CC4)cn3)CC2)cc1C(F)(F)F` [EAR38, N-((1r,4r)-4-(4-Cyano-3-(trifluoromethyl)phenoxy)cyclohexyl)-5-(4-((4-(4-(2,4-dioxotetrahydropyrimidin-1(2H)-yl)-1H-indazol-1-yl)piperidin-1-yl)methyl)piperidin-1-yl)pyrazine-2-carboxamide hydrochloride], the Dmax is not below 50%. The result for `N#Cc1ccc(O[C@H]2CC[C@H](NC(=O)c3ccc4c(c3)CN(C(=O)CN3CCC(n5ccc6c(N7CCC(=O)NC7=O)cccc65)CC3)C4)CC2)cc1Cl` [AR6, N-((1r,4r)-4-(3-Chloro-4-cyanophenoxy)cyclohexyl)-2-(2-(4-(4-(2,4-dioxotetrahydropyrimidin-1(2H)-yl)-1H-indol-1-yl)piperidin-1-yl)acetyl)isoindoline-5-carboxamide] reads not below 50%. The result for `CC1(C)[C@H](NC(=O)c2cnc(N3CCC(CN4CCC(n5ccc6c(N7CCC(=O)NC7=O)cccc65)CC4)CC3)nc2)C(C)(C)[C@H]1Oc1ccc(C#N)c(Cl)c1` [EAR11, N-((1r,3r)-3-(3-Chloro-4-cyanophenoxy)-2,2,4,4-tetramethylcyclobutyl)-2-(4-((4-(4-(2,4-dioxotetrahydropyrimidin-1(2H)-yl)-1H-indol-1-yl)piperidin-1-yl)methyl)piperidin-1-yl)pyrimidine-5-carboxamide] reads not below 50%; that for `CC(C)n1ccc2c(N3CCC(=O)NC3=O)cc(C(=O)NCCOCCN3CCN(c4ccc(C(=O)N[C@H]5CC[C@H](Oc6ccc(C#N)c(Cl)c6)CC5)nn4)CC3)cc21` [EAR76, N-(2-(2-(4-(6-(((1r,4r)-4-(3-Chloro-4-cyanophenoxy)cyclohexyl)carbamoyl)pyridazin-3-yl)piperazin-1-yl)ethoxy)ethyl)-4-(2,4-dioxotetrahydropyrimidin-1(2H)-yl)-1-isopropyl-1H-indole-6-carboxamide], not below 50%.

As to `N#Cc1ccc(O[C@H]2CC[C@H](NC(=O)c3ccc(N4CCC(CN5CCC(n6ccc7c(N8CCC(=O)NC8=O)cc(C(F)(F)F)cc76)CC5)CC4)nn3)CC2)cc1Cl` [EAR176, N-((1r,4r)-4-(3-chloro-4-cyanophenoxy)cyclohexyl)-6-(4-((4-(4-(2,4-dioxotetrahydropyrimidin-1(2H)-yl)-6-(trifluoromethyl)-1H-indol-1-yl)piperidin-1-yl)methyl)piperidin-1-yl)pyridazine-3-carboxamide], the Dmax is not below 50%. For `N#Cc1ccc(O[C@H]2CC[C@H](NC(=O)c3ccc(N4CC5(CC(CN6CCC(n7ncc8c(N9CCC(=O)NC9=O)cccc87)CC6)C5)C4)nn3)CC2)cc1Cl` [EAR224, N-((1r,4r)-4-(3-chloro-4-cyanophenoxy)cyclohexyl)-6-(6-((4-(4-(2,4-dioxotetrahydropyrimidin-1(2H)-yl)-1H-indazol-1-yl)piperidin-1-yl)methyl)-2-azaspiro[3.3]heptan-2-yl)pyridazine-3-carboxamide], the Dmax was not below 50%. Take `CC1(CN2CCC(n3ncc4c(N5CCC(=O)NC5=O)cccc43)CC2)CCN(c2ccc(C(=O)N[C@H]3CC[C@H](Oc4ccc(C#N)c(Cl)c4)CC3)nn2)CC1` [EAR242, N-((1r,4r)-4-(3-chloro-4-cyanophenoxy)cyclohexyl)-6-(4-((4-(4-(2,4-dioxotetrahydropyrimidin-1(2H)-yl)-1H-indazol-1-yl)piperidin-1-yl)methyl)-4-methylpiperidin-1-yl)pyridazine-3-carboxamide]: the Dmax is not below 50%.

Turning to `CC(C)n1ccc2c(N3CCC(=O)NC3=O)cc(C(=O)N(C)CC3CCN(CCCOc4ccc(C(=O)N[C@H]5CC[C@H](Oc6ccc(C#N)c(Cl)c6)CC5)nc4)CC3)cc21` [EAR61, N-((1-(3-((6-(((1r,4r)-4-(3-Chloro-4-cyanophenoxy)cyclohexyl)carbamoyl)pyridin-3-yl)oxy)propyl)piperidin-4-yl)methyl)-4-(2,4-dioxotetrahydropyrimidin-1(2H)-yl)-1-isopropyl-N-methyl-1H-indole-6-carboxamide], the Dmax is not below 50%. Next, `CC1(CN2CCC(n3ncc4c(N5CCC(=O)NC5=O)cccc43)CC2)CCN(c2ccc(C(=O)N[C@H]3CC[C@H](Oc4ccc(C#N)c(Cl)c4)CC3)nn2)C1` (some centres unmarked) [EAR241, N-((1r,4r)-4-(3-chloro-4-cyanophenoxy)cyclohexyl)-6-(3-((4-(4-(2,4-dioxotetrahydropyrimidin-1(2H)-yl)-1H-indazol-1-yl)piperidin-1-yl)methyl)-3-methylpyrrolidin-1-yl)pyridazine-3-carboxamide]: not below 50%. Regarding `N#Cc1ccc(O[C@H]2CC[C@H](NC(=O)c3ccc(N4CCC(CN5CCC(n6ncc7c(N8CCC(=O)NC8=O)nccc76)CC5)CC4)cc3)CC2)cc1Cl` [EAR199, N-((1r,4r)-4-(3-Chloro-4-cyanophenoxy)cyclohexyl)-4-(4-((4-(4-(2,4-dioxotetrahydropyrimidin-1(2H)-yl)-1H-pyrazolo[4,3-c]pyridin-1-yl)piperidin-1-yl)methyl)piperidin-1-yl)benzamide], the Dmax was not below 50%.

As to `N#Cc1ccc(O[C@H]2CC[C@H](NC(=O)c3ccc(N4CCC(CN5CCC(n6ncc7c(N8CCC(=O)NC8=O)nccc76)CC5)CC4)nn3)CC2)cc1C(F)(F)F` [EAR209, N-((1r,4r)-4-(4-cyano-3-(trifluoromethyl)phenoxy)cyclohexyl)-6-(4-((4-(4-(2,4-dioxotetrahydropyrimidin-1(2H)-yl)-1H-pyrazolo[4,3-c]pyridin-1-yl)piperidin-1-yl)methyl)piperidin-1-yl)pyridazine-3-carboxamide], the Dmax is not below 50%.
